In ChEMBL document CHEMBL1140438, “Ligand recognition by RAR and RXR receptors: binding and selectivity” (J Med Chem, 2005):

Key:
[1] = target: T1, Retinoic acid receptor gamma (Homo sapiens, UniProt P13631); assay: Dissociation constant for Retinoic acid receptor gamma; Not an active agonist; format: functional
T1 sequence (P13631 whole entry): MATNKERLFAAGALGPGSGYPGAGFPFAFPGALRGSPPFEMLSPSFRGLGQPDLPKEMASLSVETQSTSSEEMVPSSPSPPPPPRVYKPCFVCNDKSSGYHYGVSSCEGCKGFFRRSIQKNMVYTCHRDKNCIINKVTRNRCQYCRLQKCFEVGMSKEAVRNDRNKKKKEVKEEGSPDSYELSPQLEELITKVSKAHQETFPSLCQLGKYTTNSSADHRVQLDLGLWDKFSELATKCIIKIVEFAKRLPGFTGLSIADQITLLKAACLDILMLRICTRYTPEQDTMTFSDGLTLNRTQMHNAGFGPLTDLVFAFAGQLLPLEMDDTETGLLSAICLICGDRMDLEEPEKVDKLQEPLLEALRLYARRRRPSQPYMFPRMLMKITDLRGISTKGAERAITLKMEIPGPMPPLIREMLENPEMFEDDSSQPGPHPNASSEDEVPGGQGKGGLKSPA

[2] = target: T2, Retinoic acid receptor RXR-alpha (Homo sapiens, UniProt P19793); assay: Dissociation constant for Retinoid X receptor alpha
T2 sequence (P19793 whole entry): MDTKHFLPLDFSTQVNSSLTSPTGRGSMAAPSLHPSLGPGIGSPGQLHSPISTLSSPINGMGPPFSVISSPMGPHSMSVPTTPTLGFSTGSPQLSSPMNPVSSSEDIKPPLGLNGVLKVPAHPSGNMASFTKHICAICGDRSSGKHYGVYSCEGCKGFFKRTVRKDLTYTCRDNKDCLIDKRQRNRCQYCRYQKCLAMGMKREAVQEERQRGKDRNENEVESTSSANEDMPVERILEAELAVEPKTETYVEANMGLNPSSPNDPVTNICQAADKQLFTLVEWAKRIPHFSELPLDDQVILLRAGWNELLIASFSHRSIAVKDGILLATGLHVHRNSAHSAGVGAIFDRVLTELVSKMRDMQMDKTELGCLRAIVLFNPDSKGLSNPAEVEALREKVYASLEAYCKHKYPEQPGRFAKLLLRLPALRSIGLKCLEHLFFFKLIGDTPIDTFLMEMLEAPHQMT

[3] = target: T1, Retinoic acid receptor gamma

| Compound | Kd [1] | Kd [2] | Kd [3] |
| --- | --- | --- | --- |
| Cc1cc2c(cc1-c1cc(/C=C3\SC(=O)NC3=O)ccc1OC(F)(F)F)C(C(C)C)=CCC2(C)C | Not Active | – | – |
| C/C(=C\c1ccc(C(=O)O)cc1)c1cc2c(cc1C)C(C)(C)CCC2(C)C | – | 32 nM | 645 nM |
